Tests used:
ex vivo rat hearts = assay: Ex vivo administration of ψεRACK prior to ischemia: CPK release in perfusate of Langendorff-perfused hearts; settings: 0.5 μM peptide for 20 minutes prior to 45 minutes global ischemia; 30 minute reperfusion; FIG. 1A
Description: Animals were anesthetized as described in Example 1 and their hearts were rapidly removed and cannulated for perfusion on a Langendorff apparatus. Hemodynamic parameters were monitored until stabilized, typically for 10-20 minutes. After equilibration, ψεRACK peptide (SEQ ID NO:2) or a scrambled ψεRACK peptide (SEQ ID NO:4) were delivered to the hearts via the coronary arteries using 0.5 μM of peptide for 20 minutes.
To induce global ischemia, flow to the hearts was interrupted for 45 minutes. The hearts were then reperfused for 30 minutes. During reperfusion, ischemic-induced cell damage was determined by measuring the activity of creatine phosphokinase (absorbance at 520 nm) in the perfusate. […]
Mice or rats were anesthetized with i.p. avertin, and their hearts were rapidly removed and cannulated via the aorta for reperfusion as described in the art (Colbert et al, 1997). […] The left ventricular pressure and real-time derivative (dP/dt) were monitored via a catheter placed in the ventricular apex. […]
To induce global ischemia, flow was interrupted for 45 minutes. […] During reperfusion, ischemia-induced cell damage was determined by measuring the activity of creatine phosphokinase (CPK) (absorbance at 520 nm) in the perfusate using a Sigma kit.

whole rat hearts = assay: Ex vivo administration of ψεRACK after ischemia: CPK release in perfusate during reperfusion; settings: 0.5 μM peptide for first 20 minutes of reperfusion after 45 minutes ischemia; 60 minute period; FIG. 3B
Description: In another study performed in support of the invention, ψεRACK was administered to hearts ex vivo after a prolonged ischemic period and was effective to provide protection from ischemic injury. As described in Example 2, whole rat hearts were perfused on a Langendorff apparatus. After a 30 minute equilibration period, global ischemia was induced by stopping fluid flow for 45 minutes. The hearts were then reperfused with or without ψεRACK peptide for 20 minutes followed by 40 minutes perfusion without peptide. During the 60 minutes following ischemia (20 minutes of peptide reperfusion plus 40 minutes perfusion), the CPK activity in the perfusate was analyzed.
Rat hearts were prepared as described in Example 1. After a 30 minute equilibration period, global ischemia was induced by interrupting fluid flow for 45 minutes. The hearts were then reperfused with 0.5 μM of ψεRACK peptide for 20 minutes, followed by 40 minutes of reperfusion without the peptide. As a control, some hearts were left untreated after ischemia. During the 60 minute period following ischemia, ischemia-induced cell damage was determined by monitoring the creatine phosphokinase (CPK) activity (absorbance at 520 nm) in the perfusate collected during reperfusion.

ex vivo hearts = assay: Functional recovery of ex vivo hearts after global ischemia (left ventricle pressure, dP/dt, perfusion pressure); parameters: species or system Mice or rats; settings: 500 nM peptide prior to 30 minute global ischemia; 30 minute reperfusion
Description: In another study in support of the invention, the functional recovery of ex vivo hearts after an ischemic event was evaluated by monitoring, the isovolumic left ventricle pressure (LVP) at a constant pacing (3.3 Hz) and at a constant coronary flow (10 mL/min), as described in Example 1. Prior to the ischemic event, the hearts were treated with 500 nM ψεRACK (SEQ ID NO:2) or with scrambled ψεRACK peptide (SEQ ID NO:4). After the 30 minute global ischemia, the hearts were monitored during a 30 minute reperfusion period.
Mice or rats were anesthetized with i.p. avertin, and their hearts were rapidly removed and cannulated via the aorta for reperfusion as described in the art (Colbert et al, 1997). Care was taken to have the hearts perfused within 90 seconds of removal. The left ventricular pressure and real-time derivative (dP/dt) were monitored via a catheter placed in the ventricular apex. Hemodynamic parameters were archived every 20 seconds throughout the procedure. The hearts were perfused with oxygenated Krebs-Henseleit solution comprised of, in […], NaCl 120; KCl 5.8; NaHCO3 25; NaH2O4 1.2; MgSO4 1.2; CaCl2 1.0; and dextrose 10, pH 7.4 at 37 C.
After a 10-20 minute equilibration period, the hearts were treated with ψεRACK peptide (SEQ ID NO:2) or with scrambled ψεRACK peptide (SEQ ID NO:4) for 20 minutes. […]

pig heart [1] = assay: In vivo administration during LAD balloon occlusion in pigs: infarct area of area at risk; settings: for infarct of area at risk: about 20 μg peptide during first 10 minutes of 30 minute occlusion, hearts analysed five days later, average, p<0.005
Description: In another study in support of the invention, the ability of ψεRACK peptide to protect tissue from damage due to an ischemic or hypoxic event was evaluated by administering the peptide in vivo. As detailed in Example 3, ψεRACK peptide (SEQ ID NO:2) or scrambled ψεRACK peptide (SEQ ID NO:4) was administered to adult pigs during the first 10 minutes of a 30 minutes ischemic insult. Five days later, the hearts were analyzed for tissue damage.
Young adult female pigs, 35-40 kg in weight, were anesthetized and a catheter was introduced through the carotid artery into the heart. Using conventional intervention cardiology techniques, a wire was placed through a catheter and into the left anterior descending artery (LAD): A balloon was run over this wire to a site of occlusion where it was then inflated to block blood flow for 30 minutes. During the first 10 minutes of the ischemic insult, either the control scrambled ψεRACK peptide (SEQ ID NO:4, n=5) or the biologically active RACK peptide (SEQ ID NO:2, n=5) was delivered by diffusion through the balloon directly downstream of the occlusion. Approximately 20 μg peptide (˜400 ng per kg body weight) was administered.
After 30 minutes of occlusion, the balloon was removed and pigs were left to recover from surgery. Five days later, the pigs were euthanized and hearts were harvested. After heart removal, the LAD was occluded. With the occlusion in place, Evans Blue dye, which stains all areas not at risk of infarct in blue while leaving all areas with no access to blood flow red, was infused. Hearts were then cut into slices and stained with a tetrazolium red dye which stains all live areas red and infarcted dead tissue in white. Each heart had multiple tissue slices with distinctive areas marking the area at risk for ischemia and the infarcted area. From this the percent infarct per area at risk for each slice and for the entire heart was determined.

pig heart [2] = assay: Left ventricurogram (ejection fraction) in pigs after LAD occlusion; format: in vivo
Description: In another study, left ventricurogram (LVG) was performed in pigs (n=5) at three time points: (1) before occlusion of left anterior descending artery by balloon catheter (before occlusion); (2) immediately after reperfusion with 5 μM/10 mL of ψεRACK (post ψεRACK); and (3) before sacrifice five days later (5 days post), using 6 Fr. of pig-tail catheter. LVG was recorded by two views, right anterior oblique and left anterior oblique. Ejection fraction (EF), the percent of blood ejected in a beat, during maximum contraction, of the total maximum present in the left ventricle, was analyzed by the software, Plus Plus (Sanders Data Systems), and the averages of two views were evaluated. […] Accordingly, delivery of a ψεRACK peptide in vivo after ischemia is effective to reduce cell and tissue damage, as evidenced by an ejection fraction at least 10% greater than that of untreated cells or tissues.

[3] = pigs, 5 days post ischemia and treatment

Sequence	creatine phosphokinase (CPK) release during reperfusion (ex vivo rat hearts)	lower total CPK release versus untreated hearts (whole rat hearts)	coronary perfusion pressure (ex vivo hearts)	elevated LVP end diastolic pressure (ex vivo hearts)	infarct of area at risk (pig heart [1])	reduction of percent infarct versus scrambled peptide control (pig heart [1]; infarct area as percent of area at risk, in grams of cardiac tissue, FIG. 4C)	ejection fraction after occlusion compared to control animals treated with scrambled peptide (pig heart [2]; pigs n=5, 5 μM/10 mL ψεRACK, immediately after reperfusion, FIG. 5)	ejection fraction compared with that before ischemia (pig heart [2]; [3])	ejection fraction higher than the untreated animals (pig heart [2]; [3])
HDAPIGYD (pseudo-epsilon RACK octapeptide) [ψεRACK, ψεRACK octapeptide, εPKC specific agonist peptide]	close to the control hearts maintained under normoxia conditions	~2 fold	reduced	reduced	14.9±6%	more than 2 fold	higher ejection fraction	on par with that measured prior to ischemia	about 10%
PDYHDAGI (scrambled pseudo-epsilon RACK octapeptide) [scrambled ψεRACK, scrambled ψεRACK octapeptide, negative control, reference compound]	significant release of CPK				36.5±0.3%				
